The values that follow come from PMC7402352, “Discovery of Novel Non-Steroidal Cytochrome P450 17A1 Inhibitors as Potential Prostate Cancer Agents” (International Journal of Molecular Sciences, 2020).

One may read the IC50 as the point on the concentration scale where inhibition reaches its midpoint.

The structures appear in SMILES notation. Some results are limits rather than exact numbers.

Holding throughout (type): biochemical
One data set concerns the target T1, CYP2D6 (Homo sapiens, UniProt P10635).
T1 construct: made in house
Briefly: CYP2D6 dextromethorphan metabolism inhibition assay. The conditions noted are these: for IC50: dextromethorphan metabolism. From the text:
(§1) In human drug metabolism, CYP3A4 and CYP2D6 are dominant enzymes and undesired inhibition could potentially alter the pharmacokinetics and reduce the clearance of co-administered drugs. CYP3A4 is particularly important in this respect, with a large and flexible active site able to accommodate many different molecular scaffolds including steroids. […] The most similar steroidogenic human enzyme to CYP17A1 is CYP21A2, which also uses progesterone as a substrate, in this case to form 21-hydroxyprogesterone. Undesired inhibition of this enzyme could adversely impact the biosynthesis of the corticosteroids cortisol and aldosterone which control stress/immune responses and blood pressure, respectively. Abiraterone itself has this liability and is thus co-administered with the synthetic corticosteroid prednisone. […] However, at the same time it might be possible to achieve similar results by altering the nitrogen atom position in the pyridine fragment in compound 1e. Further optimization of 1c is required to eliminate off-target effects on the steroidogenic human CYP21A2 enzyme to prevent disruption of glucocorticoid and mineralocorticoid biosynthesis in vivo. This might be achieved by adding substituents compatible with the CYP17A1 active site topography forming interactions with the bordering Arg239 and/or Asp298 residues, but incompatible with the more spatially constrained CYP21A2 active site, as has been accomplished for abiraterone.
(§2) Selected inhibitors were tested for off-target inhibition of purified recombinant human CYP3A4 nifedipine metabolism and CYP2D6 dextromethorphan metabolism as described with minor modifications. CYP3A4 nifedipine (purchased from Sigma-Aldrich, St. Louis, MO, USA) activity assays were carried out with 200 µM nifedipine for 30 min. The CYP2D6 dextrometorphan (purchased from Sigma-Aldrich, St. Louis, MO, USA) assays were carried out with 100 µM DXM. Inhibition of steroidogenic cytochrome P450 21A2 progesterone 21-hydroxylation was evaluated as reported.
(§3) IC50 curves for compounds inhibiting CYP17A1 progesterone 17-hydroxylation (black circles), […]

The target in another data set is T2, cytochrome P450 21A2 (Homo sapiens, UniProt P08686).
T2 construct: made in house
T2 sequence (P08686 1-495): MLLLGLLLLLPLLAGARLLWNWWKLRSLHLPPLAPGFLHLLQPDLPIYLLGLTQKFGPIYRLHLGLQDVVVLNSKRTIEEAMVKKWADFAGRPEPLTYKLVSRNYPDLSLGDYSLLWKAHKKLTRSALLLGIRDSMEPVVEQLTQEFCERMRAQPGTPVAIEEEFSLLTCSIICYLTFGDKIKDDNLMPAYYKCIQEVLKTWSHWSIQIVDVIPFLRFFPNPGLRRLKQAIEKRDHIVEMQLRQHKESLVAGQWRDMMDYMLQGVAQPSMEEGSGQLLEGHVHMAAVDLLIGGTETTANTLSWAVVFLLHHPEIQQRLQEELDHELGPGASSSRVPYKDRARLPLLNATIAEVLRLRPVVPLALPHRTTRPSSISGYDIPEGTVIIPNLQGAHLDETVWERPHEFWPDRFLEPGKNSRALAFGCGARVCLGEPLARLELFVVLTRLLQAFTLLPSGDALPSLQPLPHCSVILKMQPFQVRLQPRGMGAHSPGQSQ
Briefly: CYP21A2 progesterone 21-hydroxylation inhibition assay. The conditions noted are these: for IC50: progesterone 21-hydroxylation.
Description: as §1, §2, §3

Another data set concerns the target T3, human CYP3A4 (Homo sapiens, UniProt P08684).
T3 construct: made in house
Briefly: CYP3A4 nifedipine metabolism inhibition assay. The conditions noted are these: concentrations up to 10 µM.
Description: as §1, with “Further optimization of 1c is required to eliminate off-target effects on the steroidogenic human CYP21A2 enzyme to prevent disruption of glucocorticoid and mineralocorticoid biosynthesis in vivo. This might be achieved by adding substituents compatible with the CYP17A1 active site topography forming interactions with the bordering Arg239 and/or Asp298 residues, but incompatible with the more spatially constrained CYP21A2 active site, as has been accomplished for abiraterone.” left out
Selected inhibitors were tested for off-target inhibition of purified recombinant human CYP3A4 nifedipine metabolism and CYP2D6 dextromethorphan metabolism as described with minor modifications. […] Inhibition of steroidogenic cytochrome P450 21A2 progesterone 21-hydroxylation was evaluated as reported. […]

For another data set, the target named is T4, human CYP17A1 (Homo sapiens, UniProt P05093).
T4 construct: made in house
T4 sequence (P05093 24-508 limits assumed): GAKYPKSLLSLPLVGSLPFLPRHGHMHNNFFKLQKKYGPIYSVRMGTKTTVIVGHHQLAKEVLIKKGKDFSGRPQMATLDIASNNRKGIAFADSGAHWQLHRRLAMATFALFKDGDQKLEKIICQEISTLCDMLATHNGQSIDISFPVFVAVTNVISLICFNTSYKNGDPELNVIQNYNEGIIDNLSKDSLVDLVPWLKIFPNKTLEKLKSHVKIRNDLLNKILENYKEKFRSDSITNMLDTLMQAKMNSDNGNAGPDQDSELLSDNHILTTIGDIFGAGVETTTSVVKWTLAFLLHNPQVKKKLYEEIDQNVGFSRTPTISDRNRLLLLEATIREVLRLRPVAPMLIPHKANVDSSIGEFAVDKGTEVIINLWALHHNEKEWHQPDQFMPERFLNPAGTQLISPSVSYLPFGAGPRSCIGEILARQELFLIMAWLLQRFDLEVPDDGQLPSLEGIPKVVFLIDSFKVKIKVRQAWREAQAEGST
Briefly: Cytochrome P450 17A1 progesterone 17α-hydroxylation inhibition assay. The conditions noted are these: recombinant purified CYP17A1. The procedure:
Regardless of their binding affinity, all compounds were tested for their ability to inhibit progesterone 17α-hydroxylation by recombinant purified CYP17A1 (Supplementary Materials S2).
Purified recombinant human CYP17A1 (20 pmol) and human full-length cytochrome P450 reductase (80 pmol) were used to convert progesterone (purchased from Acros Organics, Fair Lawn, NJ, USA) (6 µM) to 17α-hydroxyprogesterone. Test inhibitors were dissolved in DMSO and initially tested in concentrations ranging from 1.3 to 41 µM. In subsequent assays the range of inhibitor concentrations was optimized to best define the IC50 of individual compounds. Reactions were run and the 17α -hydroxyprogesterone product measured by LC-MS as previously published.
IC50 curves for compounds inhibiting CYP17A1 progesterone 17-hydroxylation (black circles),
CYP21A2 progesterone 21-hydroxylation (red diamonds), CYP3A4 nifedipine metabolism
(green squares), and CYP2D6 quinidine metabolism (blue triangles).
(1 picture or pasted object on this page, not shown here)

T1 sequence (P10635 whole entry): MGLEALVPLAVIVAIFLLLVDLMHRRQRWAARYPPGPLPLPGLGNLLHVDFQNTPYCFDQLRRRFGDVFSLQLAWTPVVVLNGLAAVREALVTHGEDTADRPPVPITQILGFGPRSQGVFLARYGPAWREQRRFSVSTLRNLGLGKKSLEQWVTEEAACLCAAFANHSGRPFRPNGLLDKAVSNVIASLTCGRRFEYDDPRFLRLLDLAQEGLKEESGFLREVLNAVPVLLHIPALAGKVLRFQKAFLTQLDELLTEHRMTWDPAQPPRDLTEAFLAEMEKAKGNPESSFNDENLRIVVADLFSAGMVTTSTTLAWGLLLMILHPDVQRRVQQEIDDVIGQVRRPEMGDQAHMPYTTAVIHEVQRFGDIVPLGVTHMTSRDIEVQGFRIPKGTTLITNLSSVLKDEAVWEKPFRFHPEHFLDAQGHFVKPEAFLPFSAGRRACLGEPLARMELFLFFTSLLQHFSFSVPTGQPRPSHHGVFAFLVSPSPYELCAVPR
T3 sequence (P08684 whole entry): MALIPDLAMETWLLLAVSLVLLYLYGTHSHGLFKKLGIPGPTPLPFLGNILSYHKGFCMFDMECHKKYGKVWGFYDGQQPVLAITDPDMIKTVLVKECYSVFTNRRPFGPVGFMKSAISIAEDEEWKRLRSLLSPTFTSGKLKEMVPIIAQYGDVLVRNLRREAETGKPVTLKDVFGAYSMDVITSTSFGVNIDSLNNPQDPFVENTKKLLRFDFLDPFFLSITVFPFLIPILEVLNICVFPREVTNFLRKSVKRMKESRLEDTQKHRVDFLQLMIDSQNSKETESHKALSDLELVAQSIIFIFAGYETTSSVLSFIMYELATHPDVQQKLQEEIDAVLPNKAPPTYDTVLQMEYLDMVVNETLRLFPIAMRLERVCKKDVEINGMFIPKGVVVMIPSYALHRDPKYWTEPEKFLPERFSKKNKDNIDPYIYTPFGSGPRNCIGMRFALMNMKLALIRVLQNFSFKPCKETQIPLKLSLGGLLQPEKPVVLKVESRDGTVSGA

As for `c1ccc2c(c1)ccn2-c1ccc(Nc2ccncc2)cc1` [Compound 1e], the half-inhibitory concentration (IC50) was 2500 ± 600 nM against CYP2D6, 190 ± 30 nM against cytochrome P450 21A2, > 10000 nM at human CYP3A4 and 560 ± 100 nM on human CYP17A1. Besides, the “Fold weaker inhibition of CYP2D6 than of CYP17A1” value at CYP2D6 (ratio of IC50 values) was 4.5 fold.
As to `c1cncc(Nc2ccc(-n3cnc4ccccc43)cc2)c1` [Compound 1c], the concentration for half-maximal inhibition (IC50) is > 10000 nM at CYP2D6, 1500 ± 670 nM on cytochrome P450 21A2, > 10000 nM against human CYP3A4 and 830 ± 190 nM at human CYP17A1. Moreover, on cytochrome P450 21A2 (ratio of IC50 values), the “Selectivity for CYP17A1 over CYP21A2 inhibition” value is listed as “two-fold”.
